Measured values: the NIST ThermoML archive (doi:10.1021/acs.jced.6b00536)
Numbers after ± are expanded uncertainties.

Experiment: xn = mol fraction of the nth substance listed
Conditions: Gas, Frequency=0.05 MHz, Single path-length method, x2 = 0.058

Work on `FC(F)(F)C(F)(F)C(F)(F)F` [octafluoropropane] + N#N yielded a speed of sound (293.32 K, 0.09882 kPa) of 117.97 ± 0.09 m/s, a speed of sound (293.32 K, 0.119 kPa) of 117.53 ± 0.09 m/s and a speed of sound (293.32 K, 0.1196 kPa) of 117.53 ± 0.09 m/s. For the same molecule, the speed of sound (293.32 K, 0.139 kPa) was 117.08 ± 0.09 m/s, the speed of sound (293.32 K, 0.1393 kPa) was 117.06 ± 0.09 m/s and the speed of sound (293.32 K, 0.1596 kPa) was 116.59 ± 0.09 m/s. It also gave a speed of sound (293.32 K, 0.1599 kPa) of 116.61 ± 0.1 m/s, a speed of sound (293.32 K, 0.1779 kPa) of 116.19 ± 0.1 m/s and a speed of sound (293.32 K, 0.1782 kPa) of 116.19 ± 0.1 m/s. The speed of sound (293.32 K, 0.1958 kPa) was 115.78 ± 0.1 m/s, the speed of sound (293.32 K, 0.1967 kPa) was 115.77 ± 0.1 m/s and the speed of sound (293.32 K, 0.207 kPa) was 115.54 ± 0.1 m/s. For the same molecule, the speed of sound (293.32 K, 0.2174 kPa) was 115.26 ± 0.1 m/s, the speed of sound (293.32 K, 0.218 kPa) was 115.26 ± 0.1 m/s and the speed of sound (293.32 K, 0.2185 kPa) was 115.27 ± 0.1 m/s. It also gave a speed of sound (293.32 K, 0.2573 kPa) of 114.33 ± 0.1 m/s, a speed of sound (293.32 K, 0.2766 kPa) of 113.86 ± 0.1 m/s and a speed of sound (293.32 K, 0.2771 kPa) of 113.88 ± 0.1 m/s. The speed of sound (293.32 K, 0.2946 kPa) was 113.41 ± 0.1 m/s, the speed of sound (293.32 K, 0.2954 kPa) was 113.39 ± 0.1 m/s and the speed of sound (293.32 K, 0.3175 kPa) was 112.86 ± 0.1 m/s. It also gave a speed of sound (293.32 K, 0.3315 kPa) of 112.52 ± 0.09 m/s, a speed of sound (298.38 K, 0.1005 kPa) of 119.04 ± 0.09 m/s and a speed of sound (298.38 K, 0.121 kPa) of 118.61 ± 0.09 m/s. It also gave a speed of sound (298.38 K, 0.1413 kPa) of 118.17 ± 0.09 m/s, a speed of sound (298.38 K, 0.1627 kPa) of 117.7 ± 0.09 m/s and a speed of sound (298.38 K, 0.1814 kPa) of 117.31 ± 0.09 m/s. It also gave a speed of sound (298.38 K, 0.2001 kPa) of 116.91 ± 0.09 m/s, a speed of sound (298.38 K, 0.2106 kPa) of 116.69 ± 0.09 m/s and a speed of sound (298.38 K, 0.2213 kPa) of 116.42 ± 0.09 m/s. For the same molecule, the speed of sound (298.38 K, 0.222 kPa) was 116.42 ± 0.09 m/s, the speed of sound (298.38 K, 0.262 kPa) was 115.52 ± 0.09 m/s and the speed of sound (298.38 K, 0.282 kPa) was 115.07 ± 0.09 m/s. The speed of sound (298.38 K, 0.3011 kPa) was 114.61 ± 0.09 m/s, the speed of sound (298.38 K, 0.3239 kPa) was 114.1 ± 0.09 m/s and the speed of sound (298.38 K, 0.338 kPa) was 113.78 ± 0.09 m/s. For the same molecule, the speed of sound (303.42 K, 0.1021 kPa) was 120.1 ± 0.09 m/s, the speed of sound (303.42 K, 0.1231 kPa) was 119.68 ± 0.09 m/s and the speed of sound (303.42 K, 0.1437 kPa) was 119.25 ± 0.09 m/s. It also gave a speed of sound (303.42 K, 0.1656 kPa) of 118.81 ± 0.09 m/s, a speed of sound (303.42 K, 0.1845 kPa) of 118.41 ± 0.09 m/s and a speed of sound (303.42 K, 0.2036 kPa) of 118.03 ± 0.09 m/s. For the same molecule, the speed of sound (303.42 K, 0.2142 kPa) was 117.81 ± 0.09 m/s, the speed of sound (303.42 K, 0.2253 kPa) was 117.56 ± 0.09 m/s and the speed of sound (303.42 K, 0.2258 kPa) was 117.55 ± 0.09 m/s. For the same molecule, the speed of sound (303.42 K, 0.2668 kPa) was 116.7 ± 0.09 m/s, the speed of sound (303.42 K, 0.2873 kPa) was 116.26 ± 0.09 m/s and the speed of sound (303.42 K, 0.3067 kPa) was 115.81 ± 0.09 m/s. It also gave a speed of sound (303.42 K, 0.3302 kPa) of 115.32 ± 0.09 m/s, a speed of sound (303.42 K, 0.3443 kPa) of 114.98 ± 0.09 m/s and a speed of sound (308.47 K, 0.1038 kPa) of 121.14 ± 0.09 m/s. For the same molecule, the speed of sound (308.47 K, 0.1251 kPa) was 120.73 ± 0.09 m/s, the speed of sound (308.47 K, 0.146 kPa) was 120.32 ± 0.09 m/s and the speed of sound (308.47 K, 0.1683 kPa) was 119.89 ± 0.09 m/s. For the same molecule, the speed of sound (308.47 K, 0.1877 kPa) was 119.52 ± 0.09 m/s, the speed of sound (308.47 K, 0.207 kPa) was 119.14 ± 0.09 m/s and the speed of sound (308.47 K, 0.2178 kPa) was 118.93 ± 0.09 m/s. For the same molecule, the speed of sound (308.47 K, 0.2293 kPa) was 118.7 ± 0.09 m/s, the speed of sound (308.47 K, 0.2297 kPa) was 118.68 ± 0.09 m/s and the speed of sound (308.47 K, 0.2717 kPa) was 117.84 ± 0.09 m/s. It also gave a speed of sound (308.47 K, 0.2924 kPa) of 117.42 ± 0.09 m/s, a speed of sound (308.47 K, 0.3124 kPa) of 116.99 ± 0.09 m/s and a speed of sound (308.47 K, 0.3365 kPa) of 116.51 ± 0.09 m/s. For the same molecule, the speed of sound (308.47 K, 0.3509 kPa) was 116.21 ± 0.09 m/s, the speed of sound (313.51 K, 0.1052 kPa) was 122.18 ± 0.09 m/s and the speed of sound (313.51 K, 0.1271 kPa) was 121.79 ± 0.09 m/s. The speed of sound (313.51 K, 0.1483 kPa) was 121.39 ± 0.09 m/s, the speed of sound (313.51 K, 0.171 kPa) was 120.97 ± 0.09 m/s and the speed of sound (313.51 K, 0.1907 kPa) was 120.6 ± 0.09 m/s. For the same molecule, the speed of sound (313.51 K, 0.2105 kPa) was 120.24 ± 0.09 m/s, the speed of sound (313.51 K, 0.2214 kPa) was 120.03 ± 0.09 m/s and the speed of sound (313.51 K, 0.2331 kPa) was 119.78 ± 0.09 m/s. For the same molecule, the speed of sound (313.51 K, 0.2338 kPa) was 119.8 ± 0.09 m/s, the speed of sound (313.51 K, 0.2763 kPa) was 118.97 ± 0.09 m/s and the speed of sound (313.51 K, 0.2975 kPa) was 118.58 ± 0.09 m/s. The speed of sound (313.51 K, 0.318 kPa) was 118.15 ± 0.09 m/s, the speed of sound (313.51 K, 0.3428 kPa) was 117.7 ± 0.09 m/s and the speed of sound (313.51 K, 0.3574 kPa) was 117.4 ± 0.09 m/s. The speed of sound (318.52 K, 0.1068 kPa) was 123.2 ± 0.09 m/s, the speed of sound (318.52 K, 0.1291 kPa) was 122.82 ± 0.09 m/s and the speed of sound (318.52 K, 0.1506 kPa) was 122.42 ± 0.09 m/s. For the same molecule, the speed of sound (318.52 K, 0.1737 kPa) was 122.03 ± 0.09 m/s, the speed of sound (318.52 K, 0.1939 kPa) was 121.67 ± 0.09 m/s and the speed of sound (318.52 K, 0.2139 kPa) was 121.32 ± 0.09 m/s. The speed of sound (318.52 K, 0.2251 kPa) was 121.12 ± 0.09 m/s, the speed of sound (318.52 K, 0.2374 kPa) was 120.89 ± 0.09 m/s and the speed of sound (318.52 K, 0.2377 kPa) was 120.89 ± 0.09 m/s. It also gave a speed of sound (318.52 K, 0.2812 kPa) of 120.11 ± 0.09 m/s, a speed of sound (318.52 K, 0.3027 kPa) of 119.71 ± 0.09 m/s and a speed of sound (318.52 K, 0.3235 kPa) of 119.3 ± 0.09 m/s. It also gave a speed of sound (318.52 K, 0.349 kPa) of 118.86 ± 0.09 m/s, a speed of sound (318.52 K, 0.3638 kPa) of 118.57 ± 0.1 m/s and a speed of sound (323.53 K, 0.1085 kPa) of 124.22 ± 0.14 m/s. The speed of sound (323.53 K, 0.1312 kPa) was 123.85 ± 0.14 m/s, the speed of sound (323.53 K, 0.1531 kPa) was 123.46 ± 0.13 m/s and the speed of sound (323.53 K, 0.1766 kPa) was 123.09 ± 0.13 m/s. For the same molecule, the speed of sound (323.53 K, 0.197 kPa) was 122.74 ± 0.12 m/s, the speed of sound (323.53 K, 0.2175 kPa) was 122.4 ± 0.12 m/s and the speed of sound (323.53 K, 0.2288 kPa) was 122.2 ± 0.12 m/s. For the same molecule, the speed of sound (323.53 K, 0.2413 kPa) was 121.97 ± 0.11 m/s, the speed of sound (323.53 K, 0.2416 kPa) was 121.98 ± 0.11 m/s and the speed of sound (323.53 K, 0.2859 kPa) was 121.21 ± 0.1 m/s. It also gave a speed of sound (323.53 K, 0.308 kPa) of 120.83 ± 0.1 m/s, a speed of sound (323.53 K, 0.3293 kPa) of 120.45 ± 0.1 m/s and a speed of sound (323.53 K, 0.3551 kPa) of 120.01 ± 0.1 m/s. The speed of sound (323.53 K, 0.3704 kPa) was 119.72 ± 0.09 m/s.
